Assays:
[1] = test system: U373 (Brain Tumor); test: MTT cytotoxicity assay, U373 cells, 48 hours; type: cell-based; settings: 48 hours incubation, read-out: IC50 [MTT Assays] U373 (Brain Tumor)
Protocol: (§1) Cytotoxicity was determined by MTT assays and the IC50 values were determined using Graphpad Prism Software.

[2] = test system: NALM-6 (Leukemia); test: MTT cytotoxicity assay, NALM-6 cells, 48 hours; type: cell-based, human; settings: 48 hours incubation, read-out: IC50 [MTT Assays] NALM-6 (Leukemia)
Protocol: (§2) The cells were incubated with concentrations ranging from 0.1 μM to 250 μM of the appropriate compound in 96-well plates for 48 hours. Cytotoxicity was determined by MTT [(3-[4,5-dimethylthiazol-2-yl]-2,5-diphenyl tetrazolium bromide)] assays. The results are graphed in FIG. 1a for NALM-6 cells and FIG. 1b for MOLT-3 cells.
as §1

[3] = test system: U266BL (Multiple Myeloma); test: MTT cytotoxicity assay, U266BL cells, 48 hours; type: cell-based; settings: 48 hours incubation, read-out: IC50 [MTT Assays] U266BL (Multiple Myeloma)
Protocol: as §1

[4] = test system: BT-20 (Breast Cancer); test: MTT cytotoxicity assay, BT-20 cells, 48 hours; type: cell-based; settings: 48 hours incubation, read-out: IC50 [MTT Assays] BT-20 (Breast Cancer)
Protocol: as §1

[5] = test system: HS-Sultan (Multiple Myeloma); test: MTT cytotoxicity assay, HS-Sultan cells, 48 hours; type: cell-based; settings: 48 hours incubation, read-out: IC50 [MTT Assays] HS-Sultan (Multiple Myeloma)
Protocol: as §1

[6] = test system: MOLT-3 (Leukemia); test: MTT cytotoxicity assay, MOLT-3 cells, 48 hours; type: cell-based, human; settings: 48 hours incubation, read-out: IC50 [MTT Assays] MOLT-3 (Leukemia)
Protocol: as §2, §1

[7] = test system: PC3 (Prostate Cancer); test: MTT cytotoxicity assay, PC3 cells, 48 hours; type: cell-based; settings: 48 hours incubation, read-out: IC50 [MTT Assays] PC3 (Prostate Cancer)
Protocol: as §1

[8] = test system: MDA-MB-231 (Breast Cancer); test: MTT cytotoxicity assay, MDA-MB-231 cells, 48 hours; type: cell-based; settings: 48 hours incubation, read-out: IC50 [MTT Assays] MDA-MB-231 (Breast Cancer)
Protocol: as §1

[9] = test system: T-lineage acute lymphoblastic leukemia (MOLT-3) cells; test: Clonogenic growth assay, MOLT-3 cells; type: cell-based, human; settings: 24 hours exposure, 7 days culture
Protocol: (§3) The effect on clonogenic growth of human cancer cell lines was determined for compound (5) as synthesized and described in example 2 and cisplastin for human B-lineage acute lymphoblastic leukemia (NALM-6) cells and T-lineage acute lymphoblastic leukemia (MOLT-3) cells. The cells were incubated with concentrations ranging from 0 (control) to 10 μM of the appropriate compound for 24 hours at 37° C. in a humidified 5% CO2 atmosphere. The cells were then resuspended in clonogenic a-MEM medium containing 0.9% methyl cellulose. 1×10^4 cells/dish were plated in 35 mm Petri dishes and cultured for 7 days at 37° C. in a humidified 5% CO2 atmosphere. The colonies containing ≧20 cells were counted using an inverted phase microscope.

[10] = test system: T-lineage acute lymphoblastic leukemia (MOLT-3) cells; test: In situ apoptosis assay (TUNEL), MOLT-3 cells; type: cell-based, human; settings: 5 μM, 48 hours
Protocol: (§4) The effectiveness of inducing apoptosis by compound (5) as synthesized and described in example 2 was measured for human B-lineage acute lymphoblastic leukemia (NALM-6) cells, T-lineage acute lymphoblastic leukemia (MOLT-3) cells, and multiple myeloma (ARH-77) cells. The cells were incubated with concentrations of 5 μM of compound (5) in 96-well plates 48 hours. An in situ apoptosis assay, which allows the detection of exposed 3′-hydroxyl groups in fragmented DNA by TdT-mediated dUTP nick-end labeling (TUNEL), was used by fixing, permeabilizing and visualizing the DNA degradation. Apoptotic nuclei were detected visually with a color change. The amount of apoptotic nuclei of the control cells (not incubated with compound (5)) and the incubated cells were compared.

[11] = test system: B-lineage acute lymphoblastic leukemia (NALM-6) cells; test: In situ apoptosis assay (TUNEL), NALM-6 cells; type: cell-based, human; settings: 5 μM, 48 hours
Protocol: as §4

[12] = test system: B-lineage acute lymphoblastic leukemia (NALM-6) cells; test: Clonogenic growth assay, NALM-6 cells; type: cell-based, human; settings: 24 hours exposure, 7 days culture
Protocol: as §3

[13] = test system: multiple myeloma (ARH-77) cells; test: In situ apoptosis assay (TUNEL), ARH-77 cells; type: cell-based, human; settings: 5 μM, 48 hours
Protocol: as §4

**Q.** With `N.N.[Cl][Pt][Cl]` [Cisplatin, reference compound] as the molecule, how does the IC50 [1] read?
**A.** > 250 µM

**Q.** And the IC50 [2]?
**A.** 1.1 ± 0.02 µM

**Q.** What about the IC50 [3] of the same molecule?
**A.** 15.6 ± 3.5 µM

**Q.** What about the IC50 [4] of the same molecule?
**A.** 7.21 ± 3.5 µM

**Q.** And the IC50 [5]?
**A.** 31.8 ± 7.2 µM

**Q.** And the IC50 [6]?
**A.** 1.04 ± 0.02 µM

**Q.** And the IC50 [7]?
**A.** > 250 µM

**Q.** Which results are given for cis-[Pt(CPDCA)(DACH)]H2O [(5) DDE250]?
**A.** IC50 [8]: 38.5 ± 6.4 µM; % Inhibition (clonogenic growth) ([9]; MOLT-3, 0.01 μM): 67.7%; Mean No. of Colonies/10^5 cells ([9]; MOLT-3, 0.01 μM): 1182 (1080, 1284) Colonies/10^5 cells; % Inhibition (clonogenic growth) ([9]; MOLT-3, 0.1 μM): 67.5%; Mean No. of Colonies/10^5 cells ([9]; MOLT-3, 0.1 μM): 1188 (1095, 1281) Colonies/10^5 cells; % Inhibition (clonogenic growth) ([9]; MOLT-3, 1 μM): 95.1%; Mean No. of Colonies/10^5 cells ([9]; MOLT-3, 1 μM): 179 (170, 188) Colonies/10^5 cells; Mean No. of Colonies/10^5 cells ([9]; MOLT-3, 10 μM): 0 Colonies/10^5 cells; apoptosis (apoptotic nuclei, TUNEL) over the control [10]: greatly increased apoptosis over the control; IC50 [1]: > 250 µM; IC50 [2]: 0.45 ± 0.02 µM; IC50 [3]: 18.6 ± 2.1 µM; apoptosis (apoptotic nuclei, TUNEL) over the control [11]: greatly increased apoptosis over the control; % Inhibition (clonogenic growth) ([12]; NALM-6, 0.01 μM): 42.9%; Mean No. of Colonies/10^5 cells ([12]; NALM-6, 0.01 μM): 2110 (1928, 2292) Colonies/10^5 cells; % Inhibition (clonogenic growth) ([12]; NALM-6, 0.1 μM): 48.4%; Mean No. of Colonies/10^5 cells ([12]; NALM-6, 0.1 μM): 1908 (1886, 1930) Colonies/10^5 cells; % Inhibition (clonogenic growth) ([12]; NALM-6, 1 μM): 93.3%; Mean No. of Colonies/10^5 cells ([12]; NALM-6, 1 μM): 248 (228, 268) Colonies/10^5 cells; Mean No. of Colonies/10^5 cells ([12]; NALM-6, 10 μM): 0 Colonies/10^5 cells; IC50 [4]: 21.3 ± 3.1 µM; IC50 [5]: 21.5 ± 3.5 µM; IC50 [6]: 0.66 ± 0.01 µM; apoptosis (apoptotic nuclei, TUNEL) over the control [13]: greatly increased apoptosis over the control; IC50 [7]: > 250 µM

**Q.** Which IC50 [1] does the source give for “cis-[Pt(CPDCA)(NH2C2H4OH)2] [(3) DDE248]” here?
**A.** 130 ± 8.2 µM

**Q.** What about the IC50 [2] of the same molecule?
**A.** 75.3 ± 5.2 µM

**Q.** What about the IC50 [4] of the same molecule?
**A.** 48.9 ± 7.3 µM

**Q.** What about the IC50 [6] of the same molecule?
**A.** 33.5 ± 4.5 µM

**Q.** What about the IC50 [7] of the same molecule?
**A.** 248 ± 9.3 µM

**Q.** Which results are given for cis-[Pt(CPDCA)(NH3)2]H2O [(6) DDE173]?
**A.** IC50 [1]: > 250 µM; IC50 [2]: 90.8 ± 6.2 µM; IC50 [4]: > 250 µM; IC50 [6]: 41.8 ± 3.5 µM; IC50 [7]: > 250 µM

From patent US6737537B2, “Platinum (II) antitumor compounds” (Parker Hughes Institute, priority 1999, dated 2004)
